Where a name gives a salt, the structure may show the parent alone.
Biological target: KRas G12D (Homo sapiens (Human), UniProt P01116, G12D)
Experiment: KRas G12D Binding Assay (TR-FRET displacement of Cy5 labelled tracer)
Details: GDP-loaded KRAS G12D (amino acids 1:169), 60 minute incubation at 22° C.
Protocol: After a 60 minute incubation at 22° C., the reaction was measured using a PerkinElmer EnVision multimode plate reader via TR-FRET dual wavelength detection, and the percent of control (POC) calculated using a ratiometric emission factor. […] The POC values were fit to a 4-parameter logistic curve and the IC50 value was determined as the concentration where the curve crosses 50 POC.
ND stands for “not determined.”

KRas G12D, sequence (P01116 other isoform, or with tags, fused parts or gaps G12D): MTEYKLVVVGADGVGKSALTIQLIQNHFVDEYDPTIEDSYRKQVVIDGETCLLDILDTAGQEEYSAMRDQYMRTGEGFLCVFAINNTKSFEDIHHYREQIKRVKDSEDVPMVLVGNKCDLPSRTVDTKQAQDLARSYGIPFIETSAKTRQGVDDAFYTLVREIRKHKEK

Structure (SMILES)	IC50
CCc1cccc2cccc(-c3ncc4c(N5CC6CCC(C5)N6)nc(OC[C@@]56C[C@H](O)CN5C[C@H](O)C6)nc4c3F)c12 [Example 466, (2R,6S,7as)-7a-(((4-((1R,5S)-3,8-diazabicyclo[3.2.1]octan-3-yl)-7-(8-ethylnaphthalen-1-yl)-8-fluoropyrido[4,3-d]pyrimidin-2-yl)oxy)methyl)hexahydro-1H-pyrrolizine-2,6-diol]	0.006 nM
Cn1cc([C@H]2CN3CCC[C@]3(COc3nc(N4CC5CCC(C4)N5)c4cnc(-c5cccc6cccc(Cl)c56)c(F)c4n3)C2)cn1 (stereo in doubt) [Example 220, 4-((1R,5S)-3,8-diazabicyclo[3.2.1]octan-3-yl)-7-(8-chloronaphthalen-1-yl)-8-fluoro-2-((2-(1-methyl-1H-pyrazol-4-yl)tetrahydro-1H-pyrrolizin-7a(5H)-yl)methoxy)pyrido[4,3-d]pyrimidine tris-hydrochloride salt]	8.7 nM
Cc1c(Cl)cccc1-c1ncc2c(N3C[C@H]4CC[C@@H](C3)N4)nc(OCC34CCCN3CCC4)nc2c1F [Example 274, 4-((1R,5S)-3,8-diazabicyclo[3.2.1]octan-3-yl)-7-(3-chloro-2-methylphenyl)-8-fluoro-2-((hexahydro-1H-pyrrolizin-7a-yl)methoxy)pyrido[4,3-d]pyrimidine]	35.9 nM
CN(C)c1ccccc1-c1ncc2c(N3C[C@H]4CC[C@@H](C3)N4)nc(OCC34CCCN3CCC4)nc2c1F [Example 296, 2-(4-((1R,5S)-3,8-diazabicyclo[3.2.1]octan-3-yl)-8-fluoro-2-((hexahydro-1H-pyrrolizin-7a-yl)methoxy)pyrido[4,3-d]pyrimidin-7-yl)-N,N-dimethylaniline]	112 nM
CC(C)Oc1ccccc1-c1ncc2c(N3CC4CCC(C3)N4)nc(OC[C@@]34CCCN3C[C@H](F)C4)nc2c1F (stereo in doubt) [Example 416, 4-((1R,5S)-3,8-diazabicyclo[3.2.1]octan-3-yl)-8-fluoro-2-((2-fluorotetrahydro-1H-pyrrolizin-7a(5H)-yl)methoxy)-7-(2-isopropoxyphenyl)pyrido[4,3-d]pyrimidine]	1950 nM
Cc1nccn1CCOc1nc(N2C[C@H]3C[C@@H](O)[C@@H](C2)N3)c2cnc(-c3cccc4cccc(Cl)c34)c(F)c2n1 [Example 167, (1R,5R,6R)-3-(7-(8-chloronaphthalen-1-yl)-8-fluoro-2-(2-(2-methyl-1H-imidazol-1-yl)ethoxy)pyrido[4,3-d]pyrimidin-4-yl)-3,8-diazabicyclo[3.2.1]octan-6-ol]	226 nM
Cc1cc2sc(N)nc2c(-c2ncc3c(N4C[C@H]5CC[C@@H](C4)N5)nc(OC[C@@]45CCCN4C[C@H](F)C5)nc3c2F)c1C [Example 457, 4-(4-((1R,5S)-3,8-diazabicyclo[3.2.1]octan-3-yl)-8-fluoro-2-(((2R,7aS)-2-fluorohexahydro-1H-pyrrolizin-7a-yl)methoxy)pyrido[4,3-d]pyrimidin-7-yl)-5,6-dimethylbenzo[d]thiazol-2-amine]	475 nM
CC1CCc2cccc(-c3ncc4c(N5CC6CCC(C5)N6)nc(OC[C@@]56CCCN5C[C@H](F)C6)nc4c3F)c21 (stereo partly drawn) [Example 429, 4-(3,8-diazabicyclo[3.2.1]octan-3-yl)-8-fluoro-2-(((2R,7aS)-2-fluorotetrahydro-1H-pyrrolizin-7a(5H)-yl)methoxy)-7-(3-methyl-2,3-dihydro-1H-inden-4-yl)pyrido[4,3-d]pyrimidine]	18.5 nM
Cc1cccc(-c2ncc3c(N4C[C@H]5CC[C@@H](C4)N5)nc(OCC45CCCN4CCC5)nc3c2F)c1C(C)C [Example 301, 4-((1R,5S)-3,8-diazabicyclo[3.2.1]octan-3-yl)-8-fluoro-2-((hexahydro-1H-pyrrolizin-7a-yl)methoxy)-7-(2-isopropyl-3-methylphenyl)pyrido[4,3-d]pyrimidine]	35.1 nM
Oc1cc(-c2ncc3c(N4C[C@H]5CC[C@@H](C4)N5)nc(OCC45CCCN4C(CF)CC5)nc3c2F)c2c(Cl)cccc2c1 (stereo partly drawn) [Example 400, 4-(4-((1R,5S)-3,8-diazabicyclo[3.2.1]octan-3-yl)-8-fluoro-2-((3-(fluoromethyl)tetrahydro-1H-pyrrolizin-7a(5H)-yl)methoxy)pyrido[4,3-d]pyrimidin-7-yl)-5-chloronaphthalen-2-ol]	4.2 nM
O[C@@H]1C[C@@H]2CN(c3nc(OCCn4ccnc4CF)nc4c(F)c(-c5cccc6cccc(Cl)c56)ncc34)C[C@H]1N2 [Example 168, (1R,5R,6R)-3-(7-(8-chloronaphthalen-1-yl)-8-fluoro-2-(2-(2-(fluoromethyl)-1H-imidazol-1-yl)ethoxy)pyrido[4,3-d]pyrimidin-4-yl)-3,8-diazabicyclo[3.2.1]octan-6-ol]	583 nM
Fc1c(-c2cccc3cccc(-c4c[nH]nn4)c23)ncc2c(N3C[C@H]4CC[C@@H](C3)N4)nc(OCC34CCCN3CCC4)nc12 [Example 180, 7-(8-(1H-1,2,3-triazol-4-yl)naphthalen-1-yl)-4-((1R,5S)-3,8-diazabicyclo[3.2.1]octan-3-yl)-8-fluoro-2-((hexahydro-1H-pyrrolizin-7a-yl)methoxy)pyrido[4,3-d]pyrimidine]	76.1 nM
C[C@H]1C[C@H]1c1ccccc1-c1ncc2c(N3C[C@H]4CC[C@@H](C3)N4)nc(OCC34CCCN3CCC4)nc2c1F [Example 287, 4-((1R,5S)-3,8-diazabicyclo[3.2.1]octan-3-yl)-8-fluoro-2-((hexahydro-1H-pyrrolizin-7a-yl)methoxy)-7-(2-((1R,2S)-2-methylcyclopropyl)phenyl)pyrido[4,3-d]pyrimidine]	90.7 nM
CSc1cccc2cccc(-c3ncc4c(N5C[C@H]6CC[C@@H](C5)N6)nc(OCC56CCCN5CCC6)nc4c3F)c12 [Example 199, 4-((1R,5S)-3,8-diazabicyclo[3.2.1]octan-3-yl)-8-fluoro-7-(8-(methylthio)naphthalen-1-yl)-2-((tetrahydro-1H-pyrrolizin-7a(5H)-yl)methoxy)pyrido[4,3-d]pyrimidine]	2 nM
N#Cc1cccc2cccc(-c3ncc4c(N5C[C@H]6CC[C@@H](C5)N6)nc(OCC56CCCN5CCC6)nc4c3F)c12 [Example 198, 8-(4-((1R,5S)-3,8-diazabicyclo[3.2.1]octan-3-yl)-8-fluoro-2-((tetrahydro-1H-pyrrolizin-7a(5H)-yl)methoxy)pyrido[4,3-d]pyrimidin-7-yl)-1-naphthonitrile]	20.3 nM
NCCOc1nc(N2C[C@H]3CC[C@@H](C2)N3)c2cnc(-c3cccc4cccc(Cl)c34)c(F)c2n1 [Example 261, 2-((4-((1R,5S)-3,8-diazabicyclo[3.2.1]octan-3-yl)-7-(8-chloronaphthalen-1-yl)-8-fluoropyrido[4,3-d]pyrimidin-2-yl)oxy)ethanamine]	8300 nM
Fc1c(-c2cccc3scnc23)ncc2c(N3C[C@H]4CC[C@@H](C3)N4)nc(OCC34CCCN3CCC4)nc12 [Example 454, 4-(4-((1R,5S)-3,8-diazabicyclo[3.2.1]octan-3-yl)-8-fluoro-2-((hexahydro-1H-pyrrolizin-7a-yl)methoxy)pyrido[4,3-d]pyrimidin-7-yl)benzo[d]thiazole]	295 nM
COC(=O)NC[C@H]1CC[C@@]2(COc3nc(N4CC5CCC(C4)N5)c4cnc(-c5cccc6cccc(Cl)c56)c(F)c4n3)CCCN12 [Example 411, methyl ((7a-(((4-(3,8-diazabicyclo[3.2.1]octan-3-yl)-7-(8-chloronaphthalen-1-yl)-8-fluoropyrido[4,3-d]pyrimidin-2-yl)oxy)methyl)hexahydro-1H-pyrrolizin-3-yl)methyl)carbamate]	17 nM
CCc1c(F)ccc2cc(O)cc(-c3ncc4c(N5C[C@H]6CC[C@@H](C5)N6)nc(OCC56CCCN5CCC6)nc4c3F)c12 [Example 314, 4-(4-((1R,5S)-3,8-diazabicyclo[3.2.1]octan-3-yl)-8-fluoro-2-((hexahydro-1H-pyrrolizin-7a-yl)methoxy)pyrido[4,3-d]pyrimidin-7-yl)-5-ethyl-6-fluoronaphthalen-2-ol]	0.6 nM
Fc1c(-c2cccc3cccc(Cl)c23)ncc2c(N3CC4CCC(C3)N4)nc(OC[C@@]34CCCN3C[C@@H](C(F)(F)F)C4)nc12 (mixture of isomers) [Example 382]	21.1 nM
Fc1c(-c2cccc(Cl)c2OC(F)(F)F)ncc2c(N3CC4CCC(C3)N4)nc(OCC34CCCN3CCC4)nc12 [Example 230, 4-((1R,5S)-3,8-diazabicyclo[3.2.1]octan-3-yl)-7-(3-chloro-2-(trifluoromethoxy)phenyl)-8-fluoro-2-((tetrahydro-1H-pyrrolizin-7a(5H)-yl)methoxy)pyrido[4,3-d]pyrimidine bis(2,2,2-trifluoroacetate]	1430 nM
OCc1nccn1CCOc1nc(N2CC3CCC(C2)N3)c2cnc(-c3cccc4cccc(Cl)c34)c(F)c2n1 [Example 171, (1-(2-((4-(3,8-diazabicyclo[3.2.1]octan-3-yl)-7-(8-chloronaphthalen-1-yl)-8-fluoropyrido[4,3-d]pyrimidin-2-yl)oxy)ethyl)-1H-imidazol-2-yl)methanol]	757 nM
Fc1cccc(-c2ncc3c(N4C[C@H]5CC[C@@H](C4)N5)nc(OCC45CCCN4CCC5)nc3c2F)c1C1CC1 [Example 304, 4-((1R,5S)-3,8-diazabicyclo[3.2.1]octan-3-yl)-7-(2-cyclopropyl-3-fluorophenyl)-8-fluoro-2-((hexahydro-1H-pyrrolizin-7a-yl)methoxy)pyrido[4,3-d]pyrimidine]	29.2 nM
Oc1cc(-c2ncc3c(N4C[C@H]5CC[C@@H](C4)N5)nc(OC[C@@]45CCCN4C[C@H](F)C5)nc3c2F)c2c(F)cccc2c1 [Example 282, 4-(4-((1R,5S)-3,8-diazabicyclo[3.2.1]octan-3-yl)-8-fluoro-2-(((2R,7aS)-2-fluorohexahydro-1H-pyrrolizin-7a-yl)methoxy)pyrido[4,3-d]pyrimidin-7-yl)-5-fluoronaphthalen-2-ol]	0.7 nM

— patent US20230279025A1, “KRAS G12D INHIBITORS” (Mirati Therapeutics, Inc., priority 2020, published 2023)
